Assay results published in PubChem BioAssay (NCI).
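Exposure lasted 48 hours, with cells grown in 96-well plates and compounds tested at five concentrations. Abbreviation: GI50, concentration required for 50% inhibition of growth. TGI: concentration producing complete growth inhibition.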

Key:
Assay in all cases: NCI tumour cell line growth inhibition, 48 h
786-0 renal = tested on: 786-0 renal
A498 renal = tested on: A498 renal
A549 NSCLC = tested on: A549 NSCLC
ACHN renal = tested on: ACHN renal
BT-549 breast = tested on: BT-549 breast
CAKI-1 renal = tested on: CAKI-1 renal
CCRF-CEM leukemia = tested on: CCRF-CEM leukemia
COLO 205 colon = tested on: COLO 205 colon
DU-145 prostate = tested on: DU-145 prostate
EKVX NSCLC = tested on: EKVX NSCLC
HCC-2998 colon = tested on: HCC-2998 colon
HCT-116 colon = tested on: HCT-116 colon
HCT-15 colon = tested on: HCT-15 colon
HL-60(TB) leukemia = tested on: HL-60(TB) leukemia
HOP-62 NSCLC = tested on: HOP-62 NSCLC
HOP-92 NSCLC = tested on: HOP-92 NSCLC
HS 578T breast = tested on: HS 578T breast
HT29 colon = tested on: HT29 colon
IGROV1 ovarian = tested on: IGROV1 ovarian
K-562 leukemia = tested on: K-562 leukemia
KM12 colon = tested on: KM12 colon
LOX IMVI melanoma = tested on: LOX IMVI melanoma
M14 melanoma = tested on: M14 melanoma
MALME-3M melanoma = tested on: MALME-3M melanoma
MCF7 breast = tested on: MCF7 breast
MDA-MB-231 breast = tested on: MDA-MB-231 breast
MDA-MB-435 = tested on: MDA-MB-435
MOLT-4 leukemia = tested on: MOLT-4 leukemia
NCI-H226 lung = tested on: NCI-H226 lung
NCI-H23 lung = tested on: NCI-H23 lung
NCI-H460 lung = tested on: NCI-H460 lung
NCI-H522 lung = tested on: NCI-H522 lung
NCI/ADR-RES ovarian = tested on: NCI/ADR-RES ovarian
OVCAR-3 ovarian = tested on: OVCAR-3 ovarian
OVCAR-4 ovarian = tested on: OVCAR-4 ovarian
OVCAR-5 ovarian = tested on: OVCAR-5 ovarian
OVCAR-8 ovarian = tested on: OVCAR-8 ovarian
PC-3 prostate = tested on: PC-3 prostate
RPMI-8226 leukemia = tested on: RPMI-8226 leukemia
RXF 393 renal = tested on: RXF 393 renal
SF-268 CNS = tested on: SF-268 CNS
SF-295 CNS = tested on: SF-295 CNS
SF-539 CNS = tested on: SF-539 CNS
SK-MEL-2 melanoma = tested on: SK-MEL-2 melanoma
SK-MEL-28 melanoma = tested on: SK-MEL-28 melanoma
SK-MEL-5 melanoma = tested on: SK-MEL-5 melanoma
SK-OV-3 ovarian = tested on: SK-OV-3 ovarian
SN12C renal = tested on: SN12C renal
SNB-19 CNS = tested on: SNB-19 CNS
SNB-75 CNS = tested on: SNB-75 CNS
SR leukemia = tested on: SR leukemia
SW-620 colon = tested on: SW-620 colon
T-47D breast = tested on: T-47D breast
TK-10 renal = tested on: TK-10 renal
U251 CNS = tested on: U251 CNS
UACC-257 melanoma = tested on: UACC-257 melanoma
UACC-62 melanoma = tested on: UACC-62 melanoma
UO-31 renal = tested on: UO-31 renal

## O=C(/C=C/c1cc2ccccc2[nH]c1=O)c1ccc(Cl)cc1
786-0 renal
  GI50: > 37.2 µM
  TGI: > 100 µM
A498 renal
  GI50: > 56.3 µM
  TGI: > 100 µM
A549 NSCLC
  GI50: 30.7 µM
  TGI: > 100 µM
ACHN renal
  GI50: 33 µM
  TGI: > 64.9 µM
BT-549 breast
  GI50: 24.9 µM
  TGI: > 55.6 µM
CAKI-1 renal
  GI50: 16.8 µM
  TGI: > 32.1 µM
CCRF-CEM leukemia
  GI50: 21.6 µM
  TGI: > 100 µM
COLO 205 colon
  GI50: 37.4 µM
  TGI: > 80 µM
DU-145 prostate
  GI50: 23 µM
  TGI: > 78.8 µM
EKVX NSCLC
  GI50: 28.5 µM
  TGI: > 100 µM
HCC-2998 colon
  GI50: 25.1 µM
  TGI: 56.6 µM
HCT-116 colon
  GI50: 18 µM
  TGI: 49.1 µM
HCT-15 colon
  GI50: 20.2 µM
  TGI: > 58.7 µM
HL-60(TB) leukemia
  TGI: > 100 µM
HOP-62 NSCLC
  GI50: 29.6 µM
  TGI: > 76.2 µM
HOP-92 NSCLC
  GI50: 21.6 µM
  TGI: 76.8 µM
HS 578T breast
  GI50: > 48 µM
  TGI: > 100 µM
HT29 colon
  GI50: 21 µM
  TGI: > 60.8 µM
IGROV1 ovarian
  GI50: 23.3 µM
  TGI: > 52.8 µM
K-562 leukemia
  GI50: > 71.3 µM
  TGI: > 100 µM
KM12 colon
  GI50: 22.3 µM
  TGI: > 54.6 µM
LOX IMVI melanoma
  GI50: 19.4 µM
  TGI: > 60.5 µM
M14 melanoma
  GI50: 28.7 µM
  TGI: > 73.5 µM
MALME-3M melanoma
  GI50: 37.2 µM
  TGI: > 70.7 µM
MCF7 breast
  GI50: 17.9 µM
  TGI: > 100 µM
MDA-MB-231 breast
  GI50: 25.5 µM
  TGI: 61.3 µM
MDA-MB-435
  GI50: 18.8 µM
  TGI: > 50.8 µM
MOLT-4 leukemia
  GI50: 22.8 µM
  TGI: > 100 µM
NCI-H226 lung
  GI50: 41 µM
  TGI: > 73 µM
NCI-H23 lung
  GI50: 27.3 µM
  TGI: 97.7 µM
NCI-H460 lung
  GI50: 26.2 µM
  TGI: > 57.3 µM
NCI-H522 lung
  GI50: 15.7 µM
  TGI: 32.1 µM
NCI/ADR-RES ovarian
  GI50: 21.9 µM
  TGI: 56.2 µM
OVCAR-3 ovarian
  GI50: 27.3 µM
  TGI: > 67.6 µM
OVCAR-4 ovarian
  GI50: 17.3 µM
  TGI: > 100 µM
OVCAR-5 ovarian
  GI50: 38.2 µM
  TGI: 99 µM
OVCAR-8 ovarian
  GI50: 25.3 µM
  TGI: > 59.6 µM
PC-3 prostate
  GI50: > 67.7 µM
  TGI: > 100 µM
RPMI-8226 leukemia
  GI50: 13.8 µM
  TGI: 50.1 µM
RXF 393 renal
  GI50: 22.9 µM
  TGI: > 60.2 µM
SF-268 CNS
  GI50: 28 µM
  TGI: > 85.8 µM
SF-295 CNS
  GI50: 23.2 µM
  TGI: > 72.6 µM
SF-539 CNS
  GI50: 16.9 µM
  TGI: 39.3 µM
SK-MEL-2 melanoma
  GI50: 30.1 µM
  TGI: > 63.6 µM
SK-MEL-28 melanoma
  GI50: > 56.1 µM
  TGI: > 89.8 µM
SK-MEL-5 melanoma
  GI50: 47.6 µM
  TGI: > 100 µM
SK-OV-3 ovarian
  GI50: 55.1 µM
  TGI: > 100 µM
SN12C renal
  GI50: 30.8 µM
  TGI: > 100 µM
SNB-19 CNS
  GI50: 28.2 µM
  TGI: > 100 µM
SNB-75 CNS
  GI50: 22.4 µM
  TGI: 61.5 µM
SR leukemia
  GI50: 15.6 µM
  TGI: > 57.6 µM
SW-620 colon
  GI50: 20.5 µM
  TGI: > 49.5 µM
T-47D breast
  GI50: 27.3 µM
  TGI: > 100 µM
TK-10 renal
  GI50: 26.4 µM
  TGI: > 59.3 µM
U251 CNS
  GI50: 19.1 µM
  TGI: > 48.5 µM
UACC-257 melanoma
  GI50: 33.5 µM
  TGI: > 77.7 µM
UACC-62 melanoma
  GI50: 26.4 µM
  TGI: > 81.6 µM
UO-31 renal
  GI50: > 23 µM
  TGI: > 100 µM
